Experiments:
[1] = Mango flavoured beverage, evaluation by a panel of experienced tasters; conditions: 1 ppm dosed to mango drink (mango flavour 0.05% w/w, mango juice 0.18% w/w, sugar 8% w/w, citric acid 0.1% w/w)
Experimental: A mango-flavoured beverage was prepared using a standard mango flavour (0.05% w/w), mango juice (0.18% w/w), sugar (8% w/w) and citric acid (0.1% w/w).

[2] = Beef bouillon, evaluation by a panel of experienced tasters; conditions: 1 ppm dosed to bouillon prepared from bouillon cubes
Experimental: A beef bouillon was prepared using bouillon cubes obtained from a local supermarket.

| Compound | taste of the mango drink compared with the reference drink (panel) [1] | taste of the beef bouillon compared with the reference (panel) [2] |
| --- | --- | --- |
| CCCCCCCCCCCCCCCCCCNC(=O)C1(N)CC1 [Ex 5, 1-amino-N-octadecylcyclopropanecarboxamide] | more sweet, more ripe mango, more full and more long-lasting |  |
| CCCCCCCCCCCCCCCCCCNC(=O)C1CCCN1 (stereo not shown) [Ex 3, N-octadecylpyrrolidine-2-carboxamide] | more over-ripe, more sweet, and more full and had an increased mouthfeel |  |
| CCCCCCCCCCCCCCCCNC(=O)CCCN [Ex 7, N-hexadecyl 4-aminobutyramide] |  | more salty and more umami and was more longlasting |
| CCCCCCCCCCCCCCCCCCNC(=O)C(N)CCSC (stereo not shown) [Ex 1, 2-amino-4-(methylthio)-N-octadecylbutanamide] |  | more salty and more full |
